According to ChEMBL document CHEMBL1157539, “Thousands of chemical starting points for antimalarial lead identification” (Nature, 2010):

Tested on: Plasmodium falciparum
Assay: GSK_TCMDC: Inhibition of Plasmodium falciparum 3D7 in whole erythrocytes, using parasite LDH activity as an index of growth.
Type: functional, organism-based
Settings: Plasmodium falciparum, 3D7

`Cc1[nH]c(C)c(-c2ccc(Oc3ccccc3)cc2)c(=O)c1Br` showed an XC50 of 46.8 nM.

For `c1ccc(Nc2nc(-c3ccccn3)cs2)nc1`, the XC50 was 1150 nM.

For `CS(=O)(=O)c1cccc(-c2cnc3[nH]cc(-c4cccc(CCN)c4)c3c2)c1`, the XC50 was 1560 nM.

`COc1ccc(S(=O)(=O)NC2CCN(CCNC(=O)Nc3cc(C)nc4ccccc34)C2)cc1` (stereo unspecified) was tested, and the XC50 was 1190 nM.

With `CCN(CCCN1CCCCC1)c1cc(C)nc(Nc2ccc(C)c(F)c2)n1` the XC50 was 273 nM.

In the case of `Cc1cc(Br)cnc1CCCCNC1=NC(=O)CN1C`, the XC50 is reported as 366 nM.

With `CC(C)(C)c1ccc(Cn2c(=N)n(CC(=O)c3ccc(-c4ccccc4)cc3)c3ccccc32)cc1` the XC50 was 158 nM.

`CCOC(=O)c1ccc(NC(=O)N[C@@H](Cc2ccccc2)C(=O)NC2CCN(Cc3ccc(O)c(OC)c3)C2)cc1` (stereo partly specified) was tested, and the XC50 was 989 nM.

In the case of `CC(C)[C@H](NC(=O)c1ccc(O)c(-c2ccc(Cl)c(Cl)c2)c1)C(=O)NCCN1CCCCC1`, the XC50 is reported as 339 nM.

Work on `CC(C)c1ccc(C=CC(=O)N2CCC(CCN3CCC(c4c[nH]c5ccccc45)CC3)CC2)cc1` yielded an XC50 of 1260 nM.

With `COc1cc(NC(=O)CCCN2CCN(c3cccc(Cl)c3Cl)CC2)ccc1N1CCN(C(C)C)CC1` the XC50 was 946 nM.

Compound `O=C(/C=C/C=C/c1ccccc1)NCCCCCN1CCC(c2c[nH]c3ccccc23)CC1` has an XC50 of 1170 nM.

Work on `Cc1cccc2nc(-c3ccc(-c4cccc(CNC(C)C)c4)s3)[nH]c12` yielded an XC50 of 231 nM.

In the case of `CCOc1ccc(C(=O)N2CCOC(CCN3CCC(c4ccccc4)CC3)(c3ccc(Cl)c(Cl)c3)C2)cc1` (stereo unspecified), the XC50 is reported as 854 nM.

For `CCN(C(=O)NC)C1c2cc(C#N)ccc2OC(C)(C)C1O` (stereo unspecified), the XC50 was 304 nM.

With `Cc1cc(C2CCN(CCCCNC(=O)c3ccc(NC(=O)c4ccc(Cl)cc4)cc3)CC2)c(C)cc1OCc1cccnc1` the XC50 was 603 nM.

`CCCCCCCCCN1CC[C@@H](CCCc2ccnc3ccc(O)cc23)[C@@H](CC)C1` gave an XC50 of 290 nM.

`COc1ccc(NC(=O)c2ccc3cc4ccccc4cc3c2)cc1N1CCN(C)CC1` gave an XC50 of 1030 nM.

In the case of `c1ccc(-c2nc(NC3CCCCC3)cc(C3CC3)n2)nc1`, the XC50 is reported as 728 nM.

With `Cc1cccc(CN2CCCN(Cc3ccc(C(=O)Nc4ccc(C)c(F)c4)cc3)CC2)c1` the XC50 was 1060 nM.

For `Oc1c(C=Nn2cnnc2)sc2ccccc12`, the XC50 was 911 nM.

In the case of `O=C(c1ccco1)N1CCN(c2nc(-c3ccc(Cl)cc3)nc3ccccc23)CC1`, the XC50 is reported as 934 nM.

In the case of `CNCCNCc1ccc(-c2ccc(-c3nc4cccc(C)c4[nH]3)s2)cc1`, the XC50 is reported as 732 nM.

`O=C(/C=C/c1ccc(Cl)cc1)NCCCCCN1CCN(C(=O)C=Cc2ccc(Cl)c(Cl)c2)CC1` showed an XC50 of 987 nM.

`CCCCCc1cc(O)c2c(c1)OC(C)(C)CC2C1=CCN(Cc2ccccc2)CC1` (stereo unspecified) gave an XC50 of 767 nM.

`CNC(=O)c1ccc2[nH]cc(C3CCN(CC4CCC(NC(=O)/C=C/c5ccccc5Cl)CC4)CC3)c2c1` (stereo unspecified) gave an XC50 of 836 nM.

`CN(C)CCOc1ccc(/C(=C(/CCCn2ccnc2)c2ccccc2)c2ccc(O)cc2)cc1` gave an XC50 of 772 nM.

`Cn1cnnc1Sc1ccc(CN2CCOc3ccc(C4=CCCCC4)cc3C2)o1` showed an XC50 of 849 nM.

`CCOc1ccc2ccccc2c1CNCCCCCCNCc1c(OCC)ccc2ccccc12` was tested, and the XC50 was 576 nM.

Work on `O=C(Nc1nccs1)c1cc(-c2cccnc2)nc2ccc(Br)cc12` yielded an XC50 of 403 nM.

`Cn1cc(C2CCN(CCCCNC(=O)c3ccc(-c4ccc(C(F)(F)F)cc4)c(CO)c3)CC2)c2ccccc21` showed an XC50 of 1000 nM.

Compound `CN1CCC(NCc2ccc(-c3cnc(NCc4ccccc4)nc3)cc2)CC1` has an XC50 of 827 nM.

In the case of `CCCCOC(=O)[C@H](CCC)NC(=O)c1ccc(NS(=O)(=O)c2ccc3nc(N)[nH]c(=O)c3c2)cc1`, the XC50 is reported as 198 nM.

Work on `Cc1cc(F)ccc1-c1nc(NCC(O)CNCCc2ccccc2)nc2c1ccc(=O)n2-c1c(F)cccc1F` (stereo unspecified) yielded an XC50 of 539 nM.

In the case of `CC(=O)N(Cc1ccccc1-c1cccc(CNCCc2ccccc2)c1)C1CCN(Cc2ccccc2)CC1`, the XC50 is reported as 1100 nM.

In the case of `COc1ccc2ncc(F)c(CCN3CCC(NCc4cc(C)c5c(c4)OCCO5)CC3)c2n1`, the XC50 is reported as 493 nM.

Work on `c1ccc(COc2ccc(C3CCCCC3)cc2)nc1` yielded an XC50 of 774 nM.

For `N=C(N)c1ccc(NN=Cc2ccc(Oc3ccc(C(=N)N)cc3)cc2)cc1`, the XC50 was 90.2 nM.

`Cc1csc(NC(=O)c2cn(-c3ccccc3)nc2-c2cccs2)n1` gave an XC50 of 911 nM.

`Cc1[nH]c(C)c(-c2ccc(OCc3cc(C(F)(F)F)cc(C(F)(F)F)c3)nc2)c(=O)c1Cl` gave an XC50 of 108 nM.

With `COc1ccc(-c2nc(NCc3ccccc3)c3cc(OC)c(OC)cc3n2)cc1` the XC50 was 398 nM.

`Cc1cc(C(=O)Nc2nc(-c3ccccn3)nc3ccsc23)no1` gave an XC50 of 807 nM.

With `CC(C)CN1CCN(CCNc2c3ccccc3nc3ccccc23)CC1` the XC50 was 818 nM.

`COc1cc(C(=O)N2CCOC(CCN3CCC(Cc4ccc(F)cc4)CC3)(c3ccc(Cl)c(Cl)c3)C2)cc(OC)c1OC` (stereo unspecified) was tested, and the XC50 was 902 nM.

`COc1ccc(NC(=O)N2CCCN(CCCCCNC(=O)/C=C/c3ccc(C(F)(F)F)cc3)CC2)cc1Cl` gave an XC50 of 980 nM.

`O=C(Nc1ccc(OC2CCN(Cc3ccccc3)C2)c(Cl)c1)c1cccs1` (stereo unspecified) gave an XC50 of 388 nM.

`O=C(Nc1ccc(C(=O)Nc2cccc(C3=NCCN3)c2)cc1)Nc1ccc(C2=NCCN2)cc1` gave an XC50 of 96 nM.

For `O=C(c1ccc([N+](=O)[O-])o1)N1CCN(c2nc3c(Cl)cccc3s2)CC1`, the XC50 was 980 nM.

Compound `Cc1cccc2nc(-c3ccc(-c4cccc(NC(=O)NCc5cccc(F)c5)c4)s3)[nH]c12` has an XC50 of 760 nM.

With `CS(=O)(=O)NCCCNCc1ccc(-c2ccc(-c3nc4cc(F)ccc4[nH]3)s2)cc1` the XC50 was 811 nM.

In the case of `CN(c1ccc(C(=O)N[C@@H](CCC(=O)O)C(=O)O)cc1)S(=O)(=O)c1ccc2nc(N)[nH]c(=O)c2c1`, the XC50 is reported as 149 nM.

`Cc1ccc(C2CC(c3cccs3)=NN2C(=O)c2ccc(Br)o2)cc1` (stereo unspecified) showed an XC50 of 887 nM.

`CC(C)Cc1nc2nc(N)nc(N)c2cc1C(C)C` gave an XC50 of 226 nM.

For `COc1ccc(CCNC(=O)c2cnc3c(c2)nc(-c2c[nH]c(-c4ccccc4)n2)n3CCc2c[nH]cn2)cc1`, the XC50 was 970 nM.

Work on `Cc1cc(Oc2ccc(-n3ccnc3)cc2)nc(N2CCN(CCCN3CCCC3)CC2)n1` yielded an XC50 of 928 nM.

For `Cc1cc(NC(=O)c2coc3cc(F)c(N4CC(C)N(C)C(C)C4)cc23)ccc1-n1ccnc1` (stereo unspecified), the XC50 was 841 nM.

`CCc1cn(C)c2c(N3CCCC3=O)cc(C(=O)N[C@@H](Cc3ccccc3)[C@H](O)CNC(C)(C)CCCC(C)C)cc12` was tested, and the XC50 was 487 nM.

`CC(=O)Nc1ccc(C(=O)NC2CCN(c3ccnc4cc(Cl)ccc34)C2)cc1` (stereo unspecified) gave an XC50 of 806 nM.

With `Cc1cc(C)c(NC(=O)N[C@H]2CCN(CCCCCNC(=O)/C=C/c3ccc(Cl)c(Cl)c3)C2)c(C)c1` the XC50 was 950 nM.

In the case of `CN(C)CCNC(=O)[C@H](CC1CCCCC1)NC(=O)c1ccc(O)c(-c2ccc(Cl)c(Cl)c2)c1`, the XC50 is reported as 775 nM.

Compound `Cc1cc(N2CCN(C)CC2)nc2ccc(NC(=O)c3cccc(N(C)C)c3)cc12` has an XC50 of 954 nM.

`Cc1ccccc1C1CCN(C2CCC(NC(=O)/C=C/c3ccc(C#N)cc3)CC2)CC1` (stereo unspecified) showed an XC50 of 1170 nM.

`COc1cc(Cl)c(C)cc1-n1cc(C(=O)c2cc(Br)ccc2O)cc(C#N)c1=O` was tested, and the XC50 was 874 nM.

`O=C(Cc1c[nH]cn1)Nc1cccc(-c2ccc(-c3nc4ccccc4[nH]3)cc2)c1` showed an XC50 of 761 nM.

`OCC1CCN(Cc2ccc(-c3ccc(-c4nc5cc(F)ccc5[nH]4)cc3)cc2)CC1` showed an XC50 of 845 nM.

`Cc1cc(NC(=O)[C@@H](Nc2ccc(C#N)c3ccccc23)C2CCCCC2)ccc1F` gave an XC50 of 892 nM.

For `O=c1cc(NCCC(CNCc2cc3ccccc3o2)NCc2cc(Br)cc(Br)c2)[nH]c2ccccc12` (stereo unspecified), the XC50 was 1210 nM.

For `O=C(NCc1ccc2c(c1)OCO2)c1nn(CCN2CCC(N3CCCC3)CC2)cc1-c1ccc(Cl)c(Cl)c1`, the XC50 was 935 nM.

`CCn1ccc2c(N3CCCCS3(=O)=O)cc(C(=O)N[C@@H](Cc3ccccc3)[C@H](O)CNC(C)(C)c3cccc(C(F)(F)F)c3)cc21` gave an XC50 of 133 nM.

`COc1cccc(-c2cc(C(=O)Nc3ccc4[nH]c(-c5ccccc5)nc4c3)[nH]n2)c1` gave an XC50 of 836 nM.

`COc1ccc(CC2(c3ccc(F)cc3)N=C(N)N(CCCc3ccc(F)c(F)c3)C2=O)cc1` (stereo unspecified) showed an XC50 of 779 nM.

`c1ccc(CN2CCN(CCNc3c4ccccc4nc4ccccc34)CC2)cc1` showed an XC50 of 876 nM.

In the case of `COc1ccccc1C1CCN(C2CCC(NC(=O)/C=C/c3cc(C(F)(F)F)ccc3F)CC2)CC1` (stereo unspecified), the XC50 is reported as 868 nM.

In the case of `CS(=O)(=O)CCN(CCS(C)(=O)=O)Cc1ccc(-c2ccc3ncnc(Nc4ccc(OCc5cccc(F)c5)c(Cl)c4)c3c2)o1`, the XC50 is reported as 1020 nM.

For `COc1ccc(C=NNc2ccnc3cc(F)c(C)cc23)c2ccccc12`, the XC50 was 771 nM.

Work on `Cc1ccc(Cl)c2sc(N3CCN(C(=O)c4ccc([N+](=O)[O-])o4)CC3)nc12` yielded an XC50 of 325 nM.

For `O=C(/C=C/c1ccc(Cl)c(Cl)c1)NCCC1CCC(N2CCC(c3c[nH]c4ccccc34)CC2)CC1` (stereo unspecified), the XC50 was 197 nM.

With `COc1cccc(CNC(=O)c2cccc(-c3ccc(CN4CCC(N5CCCC5)CC4)cc3)n2)c1` the XC50 was 1790 nM.

Compound `O=C(/C=C/c1ccc(Cl)c(Cl)c1)NCCCCCN1CCC(CCNC(=O)/C=C/c2cc(C(F)(F)F)ccc2F)CC1` has an XC50 of 765 nM.

`CN1CCN(CCCN(Cc2cccc(-c3cccc(CNC4CCCC4)c3)c2)C(=O)CCC2CCCC2)CC1` showed an XC50 of 675 nM.

With `O=C1OC(c2ccccc2)(c2ccccn2)CN1C1CCN(Cc2cccn2-c2ccc(Cl)cc2)CC1` (stereo unspecified) the XC50 was 475 nM.

With `c1cc(-c2ccc(CN3CCCCC3)cc2)cc(-c2nc3ccccc3[nH]2)c1` the XC50 was 585 nM.

`O=c1cc(NCCCNCc2ccccc2-c2ccccc2)[nH]c2ccccc12` showed an XC50 of 975 nM.

In the case of `O=C(O)c1cccc2c(-c3ccncc3)cccc12`, the XC50 is reported as 937 nM.

For `Cc1nc(-c2ccc3c(c2)CCN(CCC2CCC(NC(=O)c4cc5cccc(Cl)c5[nH]4)CC2)CC3)no1` (stereo unspecified), the XC50 was 633 nM.

In the case of `CC(C)C(=O)ONC1=NC(C)(C)N(OCCCOc2cc(Cl)c(Cl)cc2Cl)C(NOC(=O)C(C)C)=N1`, the XC50 is reported as 26.6 nM.

With `Cc1ccc(-c2nn3c(O)c4c(nc3c2C)CCCC4)cc1` the XC50 was 217 nM.

Work on `CCCC1(C)CSc2ccccc2C(c2ccccc2)N1` (stereo unspecified) yielded an XC50 of 707 nM.

For `O=[N+]([O-])c1cccc(CNCC2CCN(CCc3ccccc3)CC2)c1`, the XC50 was 785 nM.

`CCCC(N)C(=O)NC1CCN(c2c(F)c(N)c3c(=O)c(C(=O)O)cn4c3c2Oc2ccccc2-4)C1` (stereo unspecified) was tested, and the XC50 was 359 nM.

With `O=[N+]([O-])c1cccc(CNCC2CCN(Cc3ccc4ccccc4c3)CC2)c1` the XC50 was 876 nM.

Compound `COc1ccc2ncc(F)c(CCN3CCC(NCc4cc(OC)c5c(c4)OCCO5)CC3)c2n1` has an XC50 of 572 nM.

`CC(Cc1ccc(NS(=O)(=O)c2ccc(CC(C)NCCc3cccc(Cl)c3)cc2)cc1)NCCc1cccc(Cl)c1` (stereo unspecified) was tested, and the XC50 was 775 nM.

Compound `COc1cc(NC(=O)c2sc(-c3ccc(Cl)cc3)cc2NC(=O)N2CCCC2)ccc1OCCN1CCCC1` has an XC50 of 569 nM.

`O=C(NCC1CCC(C(=O)NCc2cccc3ccccc23)CC1)c1ccc(O)c(-c2ccc(Cl)c(Cl)c2)c1` (stereo unspecified) showed an XC50 of 749 nM.

`O=C(Nc1ccc(-c2ccccc2)cc1)Nc1cccc(OCCN2CCCC2)c1` gave an XC50 of 935 nM.
